Where two headings read alike, the source gives them in different places.
Experiments:
Assay type in all cases: cell-based, Bovine
uPA mRNA [1] = test: Northern blot analysis, uPA mRNA, BME cells; settings: 10µM, after 9 hours
Protocol: (§1) (±)-8-Prenylnaringenin or genistein were added to confluent BME cell monolayers to which fresh medium containing 5% DCS had been added 24 hours previously. Total cellular RNA was prepared after the indicated times using Trizol reagent (Life Technologies AG, Basel, Switzrland) according to the manufacturer's instructions. Northern blots, UV cross-linking and methylene blue staining of filters, in vitro transcription, hybridization and post-hybridization washes were as previously described (Pepper et al., 1990, J. Cell Biol. 111: 743-755). […] Autoradiograms were scanned and quantitated using ImageQuant (Molecular Dynamics, Sunnyvale, CA).
(§2) Replicate filters containing total cellular RNA (5 µg/lane) prepared from confluent monolayers of BME cells incubated in the absence (Control) or presence of 10µM (±)-8-prenylnaringenin for the indicated times, were hybridized with ^32P-labelled cRNA probes. RNA integrity and uniformity of loading were determined by staining the filters with methylene blue after transfer and cross-linking (lower panel of the figure); 28S and 18S ribosomal RNAs are shown.

tPA [2] = test: Zymography of cell extracts, tPA activity, BAE cells
Protocol: (§3) Confluent monolayers of BME or BAE cells in 35mm gelatin-coated tissue culture dishes were washed twice with serum-free medium, and were treated with (±)-8-Prenylnaringenin in the absence or presence of bFGF or VEGF in serum-free medium containing Trasylol (200 Kallikrein Inhibitory Units/ml). 15 hours later, cell extracts were prepared and analyzed by zymography and reverse zymography as previously described (Vassalli et al., 1984, J. Exp. Med. 159: 1653-1668).
(§4) Cell extracts (CE) and culture supernatants (Sup) prepared from BAE cells incubated with (±)-8-prenylnaringenin at the indicated concentrations in the absence or presence of bFGF (3ng/ml) for 15 hours, were subjected to zymography (uPA, tPA and tPA/PAI-1 complex activities) and reverse zymography (PAI-1 activity). The second panel marked CE is a longer incubation of the gel shown in the top panel.

BME cells [3] = test: 5 day proliferation assay; settings: Bos taurus; for inhibition at 30 µM: maximal inhibitory effect, read-out: % inhibition of BME cell proliferation
Protocol: BME cells were seeded into gelatin-coated wells of 24 well plates at 10'000 cells per well in α-MEM supplemented with 5% DCS. 24 hours later, fresh medium was added together with 8-Prenylnaringenin at the indicated concentrations or TGF-β1 (1ng/ml), and bFGF (10ng/ml) was added to half the wells. 2 days later, medium and compounds were renewed, and after a further 3 days (i.e. 5 day assay), cells were trypsinized and counted in a FACScan Analyzer. Results are shown as % inhibition calculated from the mean of duplicate wells.
8-Prenylnaringenin reduces endothelial cell number in a 5 day proliferation assay. BME cells were seeded into 24 well plates at 10'000 cells per well in medium containing 5% DCS. 24 hours later, cells were treated with 8-Prenylnaringenin at the indicated concentrations or with TGF-β1 (1ng/ml), and bFGF (10ng/ml) was added to half the wells. Results are shown as % inhibition calculated from the mean of duplicate wells.

uPA mRNA [4] = test: Northern blot analysis, uPA mRNA, BAE cells
uPAR mRNA [5] = test: Northern blot analysis, uPAR mRNA, BAE cells
Protocol: (§5) (±)-8-Prenylnaringenin or genistein were added to confluent BME cell monolayers to which fresh medium containing 5% DCS had been added 24 hours previously. Total cellular RNA was prepared after the indicated times using Trizol reagent (Life Technologies AG, Basel, Switzrland) according to the manufacturer's instructions. Northern blots, UV cross-linking and methylene blue staining of filters, in vitro transcription, hybridization and post-hybridization washes were as previously described (Pepper et al., 1990, J. Cell Biol. 111: 743-755). [^32P]-labelled cRNA probes were prepared from bovine urokinase-type plasminogen activator (u-PA) (Krätzschmar et al., 1993, Gene 125: 177-183), bovine u-PA receptor (u-PAr) (Krätzschmar et al., 1993, Gene 125: 177-183), human tissue-type PA (t-PA) (Fisher et al., 1985, J. Biol. Chem. 260: 11223-11230) and bovine PA inhibitor-1 (PAI-1) (Pepper et al., 1990, J. Cell Biol. 111: 743-755) cDNAs as previously described (Pepper et al., 1990, J. Cell Biol. 111: 743-755). Filters were exposed to Kodak X-OMAT XAR-5 Scientific Imaging Film (Eastman Kodak Co., Rochester, NY). Autoradiograms were scanned and quantitated using ImageQuant (Molecular Dynamics, Sunnyvale, CA).

tPA [6] = test: Northern blot analysis, tPA mRNA, BAE cells; settings: after 24 hours
PAI-1 mRNA = test: Northern blot analysis, PAI-1 mRNA, BME cells
Protocol: as §5

PAI-1 [7] = test: Reverse zymography, PAI-1 activity, BAE cells
Protocol: as §3, §4

BME cells [8] = test: In vitro angiogenesis assay (invasion of three-dimensional collagen gels)
Description: bFGF and VEGF induce BME and BAE cells to invade three-dimensional collagen gels, and this is accompanied by the formation of capillary like tubular structures (Montesano et al., Proc. Natl. Acad. Sci. USA 83: 7297-7301, 1986; Pepper et al., Biochem. Biophys. Res. Comm. 189: 824-831, 1992; Pepper et al., Exp. Cell Res. 204: 356-363, 1993, Pepper et al., J. Cell Sci. 108: 73-83, 1995). In addition, bFGF and VEGF induce a synergistic invasive response in BME and BAE cells (Pepper et al., 1992, Biochem. Biophys. Res. Commun. 189: 824-831; Pepper et al 1995, J. Cell Sci. 108: 73-83).
Three-dimensional collagen gels were prepared as described (Montesano et al., Cell 42: 469-477, 1985): 8 volumes of a solution of type I collagen from rat tail tendons (approximately 1.5mg/ml) were mixed with 1 volume of 10x minimal essential medium and 1 volume of sodium bicarbonate (11.76mg/ml) on ice, dispensed into 18mm tissue culture wells, and allowed to gel at 37 °C for 10 minutes. […] Invasion was quantitated by determining the total additive length of all cellular structures which had penetrated beneath the surface monolayer either as apparently single cells or in the form of cell cords (Pepper et al., Biochem. Biophys. Res. Comm. 189: 824-831, 1992). Results are expressed as the mean total additive sprout length in µm ± s.e.m., and are from three separate experiments per condition. […]

tPA [9] = test: Zymography of cell extracts, tPA activity, BME cells
Protocol: as §3
as §4, with “BME” for “BAE”, “(10ng/ml)” for “(3ng/ml)”, “activity)” for “activity). The second panel marked CE is a longer incubation of the gel shown in the top panel.”

BME cells [10] = test: Toxicity observed in BME cell cultures
uPA [11] = test: Zymography of cell extracts, uPA activity, BME cells; settings: 15 hours, serum-free
Protocol: as §3
as §4, with “BME” for “BAE”, “(10ng/ml)” for “(3ng/ml)”, “activity)” for “activity). The second panel marked CE is a longer incubation of the gel shown in the top panel.”

PAI-1 [12] = test: Reverse zymography, PAI-1 activity, BME cells; settings: 15 hours, serum-free
Protocol: as §3
as §4, with “BME” for “BAE”, “(10ng/ml)” for “(3ng/ml)”, “activity)” for “activity). The second panel marked CE is a longer incubation of the gel shown in the top panel.”

tPA mRNA = test: Northern blot analysis, tPA mRNA, BME cells; settings: 10µM, after 9 hours
Protocol: as §1, §2

uPAR mRNA [13] = test: Northern blot analysis, uPAR mRNA, BME cells; settings: 10µM, after 9 hours
Protocol: as §1, §2

uPA [14] = test: Zymography of cell extracts, uPA activity, BAE cells
Protocol: as §3, §4

With `CC(C)=CCc1c(O)cc(O)c2c1OC(c1ccc(O)cc1)CC2=O` (racemic) [8-Prenylnaringenin, 5,7-Dihydroxy-2-(4-hydroxyphenyl)-8-(3-methylbut-2-enyl)-chroman-4-on] the “uPA mRNA steady state level, maximal effect” value (uPA mRNA [1]) was 7.5 fold increase, the tPA activity (tPA [2]; 15 hours, serum-free) was “increased” and the “induction of tPA activity, effect of bFGF co-treatment” value (tPA [2]; with bFGF (3ng/ml)) was “potentiates”. The inhibition at 30 µM (BME cells [3]; absence of bFGF) was 67%, the inhibition at 30 µM (BME cells [3]; presence of bFGF (10ng/ml)) was 75% and the IC50 (BME cells [3]; 120 h, 5 day assay, 5% DCS, with or without bFGF, read-out: IC50 of inhibition of BME cell proliferation (cell number)) was about 10 µM. For the same compound, the “uPA mRNA levels” value (uPA mRNA [4]) was “virtually no effect”, the “uPAR mRNA levels” value (uPAR mRNA [5]) was “virtually no effect” and the tPA levels (tPA [6]) was 4.6 fold increase. For the same compound, the “levels of PAI-1 mRNA” value (PAI-1 mRNA) was “no significant effect”, the PAI-1 (PAI-1 [7]) was “decrease” and the “in vitro angiogenesis induced by bFGF, VEGF or a combination of the bFGF and VEGF” value (BME cells [8]; BME cells, collagen gel) was “inhibits”. For the same compound, the IC50 (BME cells [8]; Bos taurus, induced by bFGF (10ng/ml), VEGF (30ng/ml) or both, irrespective of the angiogenic stimulus, read-out: IC50 of inhibition of BME cell invasion) was 3 to 10 µM, the tPA activity (tPA [9]; 15 hours, serum-free) was “dose-dependent increase” and the “induction of tPA activity, combination with VEGF” value (tPA [9]; with VEGF, data not shown) was “synergize”. For the same compound, the “induction of tPA activity, effect of bFGF co-treatment” value (tPA [9]; with bFGF (10ng/ml)) was “potentiates”, the “concentration at which frank toxicity was observed” value (BME cells [10]; 15 hours, absence of serum) was 30 µM and the “concentration at which toxicity was seen” value (BME cells [10]; presence of 2% serum) was 100 µM. The uPA activity (uPA [11]) was “dose-dependent increase”, the PAI-1 activity (PAI-1 [12]) was “reduction” and the “tPA mRNA steady state level, maximal effect” value (tPA mRNA) was 9.6 fold increase. The “uPAR mRNA steady state level, maximal effect” value (uPAR mRNA [13]) was 6.4 fold increase, the uPA activity (uPA [14]; 15 hours, serum-free) was “increased” and the “bFGF-induced uPA activity” value (uPA [14]; with bFGF (3ng/ml)) was “reduces”.
